Assay results taken from patent US20150259313A1, “Antitumor Agent” (priority 2014, published 2015).
Entries after “also recorded” stand apart in the source; their conditions may differ. Where two headings read alike, the source gives them in different places.

Key:
[1] = tested on: NCI-H2122 lung cancer xenograft; type: in vivo, BALB/c nude mice
Protocol: (§1) NCI-H2122 cells were cultured in RMPI1640 medium, A431 tumor cells were cultured in DMEM medium, all the medium were supplemented with 10% heat inactivated fetal bovine serum, all cells used EDTA containing trypsin, passaged twice a week, incubated at 37° C. in an atmosphere of 5% CO2 in air and cultured.
(§2) 110 BALB/c nude mice, female, 6-8 weeks old, 18-22 g in body weight, were purchased from Shanghai Laboratory Animal Center (SLAC, Shanghai, China). The mice were kept in individually ventilated cage (NC) systems at constant temperature and humidity, with 20.5-24.5° C. for temperature, 40-75% for humidity. With 4 animals in each cage, the size ogf the cage is 325 mm×210 mm×180 mm. The bedding material is corn cob, which is changed twice per week. Animals had free access to irradiation sterilized dry granule food and water during the entire study period. The food and water were changed twice per week. The identification labels for each cage contain the following information: number of animals, sex, strain, and date received treatment, study number, group number, and the starting date of the treatment. Animals were marked by ear coding. The experiments started one week after receiving the animals.
Each mouse were inoculated subcutaneously at the right flank region with NCI-H2122 tumor cells (5×10^7/ml), NCI-H1703 tumor cells (1×10^8/ml) and A431 tumor cells (5×10^7/ml), respectively in a mixture of phosphate-buffered saline and matrigel for tumor development via a 1 ml syringe. The treatments were started when the mean tumor size reached about 200 (150-250) mm^3. […]
8.1 Tumor size was measured twice weekly in two dimensions using a caliper, and the volume was expressed in mm^3 using the formula: V=0.5 a×b^2 where a and b are the long and short diameters of the tumor, respectively. […]
(§3) A one-way analysis of variance was performed followed by multiple comparison procedures. All data was analyzed using SPSS 18.0.*p <0.05 or **P<0.01 are generally considered statistically significant when compared with vehicle group.

[2] = tested on: hedgehog signaling pathway; assay: Gli luciferase reporter assay in Gli Reporter-NIH3T3 cells stimulated with mShh; type: cell-based; conditions: mShh 1 μg/ml, 27 hours, read-out: IC50 for inhibition of the hedgehog signaling pathway
Protocol: In vitro test: Experimental method to measure the inhibition of jervine on the hedgehog signaling pathway
Hedgehog signaling pathway Gli Reporter-NIH3T3 cells were cultured in DMEM medium with 10% Calf serum, 1% Penn-strep, 500 μg/ml of Geneticin.
To perform the Gli luciferase reporter assay, Gli Reporter-NIH3T3 cells were seeded at 25,000 cells per well into white clear-bottom 96-well microplate in 100 μl of growth medium. Cells were incubated at 37° C. and 5% CO2 for overnight. Next day remove the medium from wells and add 45 μl of diluted inhibitor in assay medium (Opti-MEM Reduced Serum Medium+0.5% calf serum+1% non-essential amino acids+1 mM Na-pyruvate+10 mM HEPES+1% Pen/Strep) per well. Incubate cells at 37° C. in a CO2 incubator for 2 hours. Then add 5 μl of diluted mShh in assay medium to wells (final [mShh]=1 μg/ml). Add […] of assay medium to cell-free control wells. Cells were treated for 27 hours. […] Luminescence was measured using a luminometer(BioTek Synergy™ 2 microplate reader) 2.3 Data Analysis
Reporter assays in triplicate were performed at each concentration. The luminescence intensity data were analyzed using the computer software, Graphpad Prism. In the absence of the compound, the luminescence intensity (Lt) in each data set was defined as 100%. In the absence of cells, the luminescence intensity (Lb) in each data set was defined as 0%. […]

[3] = tested on: A431 basal cell carcinoma xenograft; assay: A431 basal cell carcinoma xenograft tumor model, inoculated subcutaneously; type: in vivo, BALB/c nude mice; conditions: 40-80 mg/kg p.o. QD × 21 days
Protocol: as §1, §2
(§4) Each mouse were inoculated subcutaneously at the right flank region with NCI-H2122 tumor cells (5×10^7/ml), NCI-H1703 tumor cells (1×10^8/ml) and A431 tumor cells (5×10^7/ml), respectively in a mixture of phosphate-buffered saline and matrigel for tumor development via a 1 ml syringe. The treatments were started when the mean tumor size reached about 200 (150-250) mm^3.
(§5) After tumor volume reached 3000 mm^3 or average tumor volume reached 2000 mm^3, before experimental animals emaciated or coma, anesthesia and euthanasia will be performed. During the experiment, if the weight loss of experimental animal reaches 20%, administration will be discontinued and experimental animals will be observed until the weight returned to 10% range before restart of the administration. In this experiment, when the mean tumor volume reached 2000 mm^3 or at the end of 59 days after the administration, experimental animals will be anesthesiaed to collect tumor mass which will be weighed and photographed.
(§6) 8.1 Tumor size was measured twice weekly in two dimensions using a caliper, and the volume was expressed in mm^3 using the formula: V=0.5 a×b^2 where a and b are the long and short diameters of the tumor, respectively.
(§7) 8.2 T/C, percent value, T and C were the mean volume of the treated and control groups, respectively, on a given day.
as §3

A431 xenograft = assay: as above; type: in vivo, BALB/c nude mice
Protocol: as §1, §2, §4, §5, §6, §7, §3

[4] = Pharmacokinetic study of jervine in mice; type: in vivo; conditions: CD-1 mice
Protocol: Orally dosed: A total of 3 male experimental CD-1 mice, approximately 8 weeks of age at receipt was administered jervine via oral gavage at 10 mg/kg. Blood samples (300 μL) were collected via cardiac puncture predose and at 2 minute, 5 minute, 15 minute, 0.5 hour, 1 hour, 2 hour, 4 hour, 8 hour, 24 hours postdose. Plasma was made form the blood samples in order to measure the concentration of jervine.

[5] = Maximum tolerated dose of jervine on BALB/c nude mice; type: in vivo; conditions: 14 days
Protocol: Result indicates the maximum tolerated dose of jervine is higher than 80 mg/kg for BALB/c mice.
Study the maximum tolerated dose of jervine on BALB/c nude mice 9 BALB/c nude mice were divided equally into 3 groups. The mice were orally dosed at 50 mg/kg, 80 mg/kg and 150 mg/kg by groups. […] It was initialy determinded that the maximum tolerated dose is higher than 80 mg/kg for BALB/c nude mice.

[6] = tested on: BXPC-3 human pancreatic carcinoma xenograft; type: in vivo, BALB/c nude mice; conditions: BXPC-3 xenograft
Protocol: BXPC-3 tumor cells cultured in RMPI1640 medium supplemented with 10% heat inactivated fetal bovine serum, all cells used EDTA containing trypsin, passaged twice a week, incubated at 37° C. in an atmosphere of 5% CO2 in air and cultured.
40 BALB/c nude mice, female, 6-8 weeks old, 18-22 g in body weight, were purchased from Shanghai Laboratory Animal Center (SLAC, Shanghai, China).
Each mouse was inoculated subcutaneously at the right flank region with BXPC-3 tumor cells (5×10^7) in 0.1 ml of phosphate-buffered saline with matrigel via a 1 ml syringe for tumor development. The treatments were started when the mean tumor size reaches approximately 200 (150-250) mm^3 at 9 days after inoculation.

[7] = male, mouse, PO 10 mg/Kg, plasma

CC1=C2C(=O)[C@H]3[C@@H](CC=C4C[C@@H](O)CC[C@@]43C)[C@@H]2CC[C@]12O[C@@H]1C[C@H](C)CN[C@H]1[C@H]2C [jervine, Jervine]
T/C value (tumor volume) ([1]; 40 mg/kg p.o. QD for 21 days): 0.79 | T/C value (tumor volume) ([1]; 60 mg/kg p.o. QD for 21 days): 0.701 | T/C value (tumor volume) ([1]; 80 mg/kg p.o. QD for 21 days): 0.594 | IC50 [2]: 50 nM | side effects / weight loss of the mice [3]: no obvious side effects; also recorded: no significant of weight lose | T/C value (tumor volume) (A431 xenograft; 40 mg/kg p.o. QD for 21 days): 0.52 | T/C value (tumor volume) (A431 xenograft; 60 mg/kg p.o. QD for 21 days): 0.80 | T/C value (tumor volume) (A431 xenograft; 80 mg/kg p.o. QD for 21 days): 0.82 | F (bioavailability) ([4]; PO 10 mg/Kg, 10 mg/kg): 41.2% | bioavailability ([4]; male, CD-1, mouse, plasma, po, 10 mg/kg, read-out: F (bioavailability)): 41% | AUC(0-inf) [4, 7]: 2260 ng·h/mL | AUC(0-t) [4, 7]: 1790 ng·h/mL | Cmax [4, 7]: 368 ng/mL | half-life ([4]; male, mouse, PO 10 mg/Kg, plasma, read-out: T½ (converted)): 708 min | animal deaths ([5]; 50 mg/kg oral): no animal dead | weight loss ([5]; 80 mg/kg oral gavage): no significant weight loss | animal deaths ([5]; 80 mg/kg oral): no animal die; also recorded: no animal dead | animal deaths ([5]; 150 mg/kg oral, 3 mice per group): Two | MTD ([5]; mouse, in vivo, oral, BALB/c nude mice): > 80 mg/kg | T/C value (tumor volume) ([6]; 20 mg/kg iv QD × 21 days): 25.8% | T/C value (tumor volume) ([6]; 40 mg/kg iv QD × 21 days): 59.1% | T/C value (tumor volume) ([6]; 80 mg/kg iv QD × 21 days): 54.2%
